Reference: patent US20230210845A1, “DOSING METHODS FOR TREATMENT OF CARDIOVASCULAR CONDITIONS” (IMBRIA PHARMACEUTICALS, INC., priority 2020, published 2023)
Where two headings read alike, the source gives them in different places. One block for each compound: values may come before it.

Columns and labels:
[1] = MAD part: safety and tolerability (TEAEs); type: in vivo, human (healthy subjects)
[2] = SAD part (and integrated FE arm): safety and tolerability (TEAEs)
[3] = FIH study: plasma PK, single and multiple dose results combined; type: in vivo, human (healthy subjects); details: all blood samples of subjects that received IMB-1018972
[4] = 28-day dog toxicology study (NOAEL and exposure); type: in vivo; details: for AUC0-8×2: Day 26, IMB-1018972 200 mg/kg/day
Method: Based on the nonclinical toxicology data, it was considered that subjects in this clinical study were not at unreasonable risk of adverse effects. […] For a 60-kg individual, the NOAEL dose would be 6480 mg. With a 10-fold safety factor applied, this would allow for a maximum recommended starting dose (MRSD) of 648 mg/day.7,8 The planned starting dose in the current Phase 1 study was 50 mg, equivalent to 0.83 mg/kg/day for a 60-kg subject. This starting dose is less than 10% of the MRSD determined from the dog NOAEL and less than 1% of the dog NOAEL.
The relevant animal study was the 28-day dog study where the NOAEL for IMB-1018972 was 200 mg/kg/day.

[5] = FIH study overall safety (deaths, clinical laboratory, vital signs, ECG, telemetry, physical examination)
[6] = clinical
Method: Subjects with R2 below 0.80 or %AUCextra>20% were not excluded from the dose-proportionality evaluation based on AUC0-inf. A point estimate and 95% CI were produced for the slope. […] Since there were only 2 dose levels in the MAD part, no dose-proportionality analysis was performed for the MAD part.

[7] = Method: Subjects received multiple oral doses of an IR formulation of IMB-1018972 or placebo once every 12 hours (q12h) for 14 consecutive days.
The doses were selected based upon the safety, tolerability, and PK data from the SAD part: • Group B1 multiple oral doses of an IR formulation of 150 mg IMB-1018972 (n=9) or matching placebo (n=3) twice daily (q12h) for 14 days; on Day 14 only a single morning dose was administered • Group B2: multiple oral doses of an IR formulation of 50 mg IMB-1018972 (n=9) or matching placebo (n=3) q12h for 14 days; on Day 14 only a single morning dose was administered
Before each morning dose, subjects fasted overnight for at least 10 hours following a snack on the evening before. On Days 1 and 14, subjects received a standardized breakfast that had to be consumed within 20 minutes. Dosing occurred at 30 minutes after the start of breakfast. Following dosing, subjects fasted for 4 hours until lunch. During fasting, fluids other than water were not allowed. On Days 2 to 13, breakfast was not standardized and was given within maximally 1 hour before dosing and consumed before dosing. No fasting after dosing was applicable on these days.

[8] = clinical; type: in vivo, human (healthy subjects); details: plasma; for Tmax: human, oral, 150 mg, read-out: median tmax
[9] = clinical; set-up: species or system human (healthy subjects); details: human, in vivo, po, 35 mg
[10] = SAD part: PK in urine (urinary excretion, renal clearance); type: in vivo, human (healthy subjects); details: for CL renal: human, urine, read-out: geometric mean renal clearance (CLR) (converted)
[11] = 150 mg IMB-1018972, fasted (FE group)
[12] = 150 mg IMB-1018972, fed (FDA high-fat breakfast)
[13] = single oral dose 35 mg trimetazidine, all 4 TEAEs

Compound: COc1ccc(CN2CCN(CCOC(=O)c3cccnc3)CC2)c(OC)c1OC [IMB-1018972]
TEAEs of flushing ([1]; 50 mg q12h fed): No TEAEs of flushing were reported
number of TEAEs of flushing (incidental and mild) ([1]; 150 mg q12h fed): 7
subjects with TEAEs of flushing ([1]; 150 mg q12h fed (n=9)): 6
subjects reporting drug-related TEAEs ([1]; MAD part (6 of 18)): 33.3%
subjects reporting TEAEs not related to the study drug ([1]; MAD part (11 of 18)): 61.1%
severity of TEAEs ([1]; MAD part, all TEAEs): mild severity
total number of TEAEs ([1]; all IMB-1018972 subjects of MAD part): 35
effect of dosing under fed conditions on TEAEs ([2]; FE arm of SAD part, 150 mg): appeared to attenuate the number and incidence of TEAEs
TEAEs of flushing of mild severity ([2]; SAD part): 1
TEAEs of flushing of moderate severity ([2]; SAD part): 5
number of TEAEs of flushing (most common AEs) ([2]; SAD part): 6
severe TEAEs ([2]; SAD part): No severe TEAEs were reported
subjects reporting drug-related TEAEs of flushing ([2]; SAD part (6 subjects)): 25%
subjects reporting drug-related TEAEs ([2]; SAD part (7 of 24)): 29.2%
serious adverse event leading to withdrawal ([2]; Subject 131, 150 mg fasted, FE arm Group A4, moderate, unlikely related): influenza like illness
total number of TEAEs ([2]; all IMB-1018972 subjects of SAD part): 45
drug-related TEAEs ([2]; following 50 mg and 150 mg (fasted only group)): No drug-related TEAEs were reported
subjects who reported flushing ([2]; single dose 150 mg fasted, FE arm (n=6)): 2
measurability of parent compound in plasma [3]: could be measured in only few plasma samples
maximum recommended starting dose (MRSD) ([4]; both, dog, in vivo, 28 days): 648 mg/day
clinical laboratory, vital signs, 12-lead ECG, telemetry, physical examination ([5]; single and multiple oral doses, IR formulation): no findings of clinical relevance
deaths ([5]; whole study): no deaths reported

Compound: COc1ccc(CN2CCN(CCO)CC2)c(OC)c1OC [IMB-1028814]
dose proportionality for Cmax, AUC0-t, AUC0-inf (95% CIs of slopes included 1) ([6]; IMB-1018972 single-dose range 50 to 400 mg, fasted): no evidence of a deviation from dose proportionality
median tmax ([6]; plasma, single-dose range 50 mg to 400 mg IMB-1018972 IR, fasted): around 1 hours
state of concentrations at Day 14 dose (trough concentrations, visual inspection) ([7]; 150 mg fed and 50 mg fed q12h): steady-state conditions
geometric mean Cmax higher on Day 1 in MAD part than after single dose in SAD part ([7]; 150 mg fed in both parts): 97%
geometric mean t1/2 ([7]; Day 14 after 50 mg q12h fed): 2.79 h
geometric mean t1/2 ([7]; Day 14 after 150 mg q12h fed): 4.48 h
AUC0-8×2 ([4]; female dogs): 652,849 ng.h/mL
AUC0-8×2 ([4]; male dogs): 417,733 ng.h/mL
median tmax [8, 11]: 1 h
median tmax [8, 12]: 2 h

Tmax ([6]; human, in vivo): 1.5 to 2 h
time postdose at which detectable concentrations generally seen ([6]; human, in vivo): 15 to 30 min
Tmax ([6]; human, in vivo, po, 50 mg): 1 to 2 h
half-life ([6]; human, plasma, oral): 6.76 to 8 h
AUC(0-inf) [9]: 929 ng·h/mL
AUC(0-t) [9]: 912 ng·h/mL
Cmax [9]: 68.6 ng/mL
half-life [9]: 7.49 h
CL renal ([10]; oral, range over single doses 50 mg to 400 mg IMB-1018972): 302 to 347 mL/min
CL renal ([10]; po, 35 mg): 340 mL/min
arithmetic mean percent of the dose excreted in urine ([10]; within 48 hours after single oral dose of 35 mg trimetazidine): 54.47%
Tmax [8, 11]: 1.5 h
Tmax [8, 12]: 4 h
Compound: COc1ccc(CN2CCNCC2)c(OC)c1OC [trimetazidine]
total number of TEAEs ([2]; single oral dose 35 mg trimetazidine): 4
relationship of TEAEs to study drug [2, 13]: not to be related to the study drug
severity of TEAEs [2, 13]: mild severity
